# Reference: patent publication US12377173B2, “Compositions comprising hyperpolarized probes for H2O2 sensing and methods of using same” (Duke University, priority 2021, dated 2025)
# Tests used:
# [1] = ROS/RNS/reactive sulfur selectivity test, LC/MS; details: 200 μM probe, 2 mM reactive species, PBS pH 7.4, LC/MS (FIG. 1B)
# Experimental: (§1) Selectivity for the BBCP probe was measured by analytical high performance liquid chromatography (HPLC) using Agilent 1200 Series HPLC System equipped with a multi-wavelength detector and an Agilent Zorbax SB-C18 Column (3.5 μm particle size, 3.0×150 mm). Concentrations of 4-cyanopyridine was calculated using integrated peak intensities at 280 nm using a calibration curve. All reactions were tested with 200 μM BBCP and 2 mM ROS/RNS (10 equiv) in PBS (pH 7.4). At a given time point, the reaction was quenched with 10 μL 1 M ascorbic acid (10 mM) and analyzed by LCMS.
# [2] = Stability in PBS and DMEM media (LCMS)
# [3] = In vivo reaction-based detection of H2O2 with hyperpolarized 15N-BBCP; details: rat
# Experimental: Finally, the ability of ^15N-BBCP to image H2O2 in vivo using clinical 3 T MRI was assessed.
# Finally, the feasibility of ^15N-BBCP to detect H2O2 in vivo was investigated in a rat model at the clinical 3 T MRI. […] Despite the small chemical shift difference, the accumulation of ^15N-HBCP production was clearly observed in the later time points.
# [4] = ROS selectivity test, LC/MS conversion to 4-cyanopyridine; details: 200 μM BBCP, 2 mM H2O2 (10 equiv), PBS pH 7.4, 5-30 min, room temperature
# Experimental: as §1, with “LCMS. The ROS and RNS were generated as follows:” for “LCMS.”
# H2O2: A 30% H2O2 in H2O solution was diluted to a 500 mM stock solution. 4 μL of 500 mM H2O2 (2 mM) was added to a 200 μM of BBCP in PBS.
# [5] = ROS selectivity test, LC/MS; details: 200 μM BBCP, 2 mM OCl^−, PBS pH 7.4, LC/MS
# Experimental: as §1, with “LCMS. The ROS and RNS were generated as follows:” for “LCMS.”
# OCl^−: Commercial bleach (8.25% NaOCl) was diluted to 500 mM. 4 μL of 500 mM NaOCl (for a final concentration of 2 mM) was added to 200 μM of BBCP.
# HeLa cells = test: Cytotoxicity analysis using WST-8 assay (CCK-8); type: cell-based; details: concentrations up to 10 mM, 6 h of treatment
# Experimental: WST cytotoxicity assay was performed using Cell Counting Kit-8 (CCK-8) according to the procedure as follows. HeLa cells were seeded in a 96-well plate at a concentration of 5000 cells/well in DMEM medium (high glucose) supplemented with 10% FBS and 1% sodium pyruvate. The cell cultures were incubated for 24 h in a humidified atmosphere of 5% CO2 at 37° C. After the incubation period, 10 μL of 5, 10, 50, 100 mM stock solutions of BBCP dissolved in PBS buffer (pH 7.4) were added to each well so the final concentration is 0.5, 1, 5, 10 mM, respectively. PBS and sodium dodecyl sulfate (SDS) (1 mM) were used as negative and positive controls, respectively. The treated 96-well plates were incubated for 6 and 24 h in a humidified atmosphere of 5% CO2 at 37° C. After appropriate incubation time, the CCK-8 solution (10 μL) was added to each well and further incubated for 2 h for color development. The absorbance at 450 nm from each well was measured by using a microplate reader (Synergy™ H1, BioTek). The background absorbance of BBCP corrected.
# [6] = UV/Vis kinetics measurement; details: 25° C., PBS pH 7.4, 50 μM BBCP, 5 mM H2O2 (100 equiv)
# Experimental: The pseudo-first order rate constant was calculated by monitoring the BBCP consumption with UV/Vis spectroscopy over time in the presence of excess H2O2. A solution of BBCP (50 μM) oxidation was initiated by the addition of freshly prepared H2O2 (5 mM, 100 equiv) in PBS (pH 7.4) at 25° C. Reactions were monitored as Abs310 change and scanned every 30 s for 20 minutes. The apparent k1 value was determined by the initial rate of reaction (0-50 s) as (3.4±0.15)×10^−3 min^−1. The experiment was repeated in triplicate to give a k2 value of 12.6±0.52 M^−1 min^−1 (0.21±0.0087 M^−1 s^−1).
# [7] = ROS/RNS selectivity test, LC/MS; details: 200 μM BBCP, 2 mM ONOO^−, PBS pH 7.4, LC/MS
# Experimental: as §1, with “LCMS. The ROS and RNS were generated as follows:” for “LCMS.”
# ONOO^−: To a solution of aqueous NaOH (0.5 M, 2.5 mL) and iPrOH (2.5 mL) was added H2O2 (30% in H2O, 0.12 mL, 1.2 mmol, 1.2 equiv), followed by isoamyl nitrite (0.135 mL, 1.0 mmol, […]). The reaction was stirred at room temperature for 20 mins and washed with CH2Cl2 (10 mL×2). […] The solution was then filtered and stored in −20° C. until use. The concentration of the stock solution was calculated to be 14.3 mM using absorbance at 302 nm (e=1670 M^−1).
# [8] = injection of exogenous H2O2, 3 T 15N-MRS (Example 3)
substance,measurement,setting,value
1-(4-boronobenzyl)-4-(cyano)pyridin-1-ium [^15N-BBCP],reactivity toward hydrogensulfite,[1],showed reactivity
same,LCMS absorbance peak area of the probe in PBS,[2]; 0 hours,566.6
same,time stable in PBS and DMEM media,"[2]; 200 μM probe, pH 7.4, room temp, LCMS",over 26 h
same,LCMS absorbance peak area of the probe in PBS,[2]; 2 hours,565.6
same,LCMS absorbance peak area of the probe in PBS,[2]; 26 hours,564.9
same,stability in physiological buffer solution (in words),"[2]; PBS, pH 7.4, 200 μM, 0, 2 and 24 h (FIG. 4)",only showing hydrolysis of boronic ester to boronic acid
same,15N-CP (fragmentation product) signal in vivo,[3]; [8],^15N-CP was not observed
same,15N-HBCP (oxidation product) signal in vivo,[3]; [8],^15N-HBCP peak was detectable
same,15N-CP (fragmentation product) signal in vivo,"[3]; intravenous bolus 40-mM after intraperitoneal H2O2, 3 T",^15N-CP was not observed
same,15N-HBCP (oxidation product) signal in vivo,"[3]; intravenous bolus 40-mM after intraperitoneal H2O2, slab with liver and kidneys, 3 T",both ^15N-BBCP and ^15N-HBCP peaks appeared
same,conversion to 4-cyanopyridine on reaction with H2O2,[4],significant conversion to 4-cyanopyridine
same,reactivity with hypochlorite,[5],moderate reactivity
same,cell viability,HeLa cells,> 90%
same,"apparent k1 (pseudo-first order rate constant), initial rate 0-50 s",[6],(3.4±0.15)×10^−3 min^−1
same,reactivity with peroxynitrite,[7],moderate reactivity
